Assay [1] deals with Myzus persicae (green peach aphid). Put plainly: Example B17: activity against Myzus persicae on sprayed pepper plants (feeding/residual contact). The following applies: 144 h, infested pepper plants sprayed, 6 days. The format is in vivo.
The subject of assay [2] is Aphis Craccivora (cowpea aphid). The assay is described as follows: Example B11: translaminar activity against Aphis craccivora on French bean leaves. Format: in vivo. The following applies: 120 h, upper leaf side painted, aphids on lower side, 5 days. Here is the method: Translaminar Activity Against Aphis Craccivora (Cowpea Aphid)
French bean leaves (Phaseolus vulgaris) are infested with about 20 mixed age individuals on the lower leaf side using clip cages. 1 day after the infestation, the upper side of the leaves is treated with the test solution by painting. 5 days later, samples are checked for mortality.

Assay [3] deals with Myzus persicae (green peach aphid). The assay is described as follows: Example B13: drench activity against Myzus persicae, pea seedlings in field soil. The conditions noted are these: 168 h, read-out: drench activity (mortality).
Assay [4] has the same test system. The assay is described as follows: Example B1: activity against Myzus persicae, sprayed sunflower leaf discs (feeding/residual contact, preventive). The conditions noted are these: foliar, 144 h, read-out: activity (mortality).
For assay [5] the test system is unchanged. The assay is described as follows: Example B2: activity against Myzus persicae, pea seedling roots in test solution (systemic/feeding, curative). The conditions noted are these: 144 h, read-out: activity (mortality).
Assay [6] deals with Aphis Craccivora (cowpea aphid). The assay is described as follows: Example B9: activity against Aphis craccivora, sprayed pea seedlings (contact/feeding). The format is in vivo. The conditions noted are these: 144 h, infested pea seedlings sprayed, 6 days. The text has this: (§1) Activity Against Aphis Craccivora (Cowpea Aphid)
(Mixed Population, Contact/Feeding)
6 days after treatment, samples are checked for mortality.

Assay [7] has as its system Nilaparvata lugens (brown rice planthopper). Put plainly: Example B8: activity against Nilaparvata lugens, sprayed rice seedlings (larvicide, feeding/contact). The following applies: in Oryza sativa, read-out: activity (mortality, growth regulation, effects on F1 generation).
Assay [8] deals with Aphis Craccivora (cowpea aphid). Put plainly: Example B10: activity against Aphis craccivora, pea seedling roots in test solution (systemic/feeding). The following applies: 144 h, roots of infested pea seedlings in test solution, 6 days. The format is in vivo.
From the text: as §1
(Mixed Population, Systemic/Feeding)

For assay [9], the system named is Bemisia tabaci (tobacco white fly). Put plainly: Example B7: activity against Bemisia tabaci, sprayed bean plants (larvicide, contact/feeding). The conditions noted are these: 504 h, bean plants with N-2 nymphs sprayed, three weeks, read-out: activity (efficacy, number of emerged adults). The format is in vivo. How it is done:
Activity Against Bemisia tabaci (Tobacco White Fly)
(Larvicide, Contact/Feeding)
Bean plants are infested with 20-30 adults that were removed after a 4 day egg-laying period. After another 7 days, bean plants with hatched nymphs (N-2) are treated (2 replicates) with the test solutions in a spray chamber. Three weeks later, samples are checked for number of emerged adults. Efficacy was calculated by comparing number of emerged adults in treated and non treated samples.

For assay [10], the system named is Frankliniella occidentalis (western flower thrips). The assay is described as follows: Example B6: activity against Frankliniella occidentalis, bean leaf discs or bean plants. Format: in vivo. The conditions noted are these: foliar, 6 days (leaf discs) or 14 days (plants) after infestation, read-out: activity (reduction of treated population). How it is done:
Activity Against Frankliniella occidentalis (Western Flower Thrips)
Bean leaf discs on agar in petri dishes or bean plants in a spray chamber are treated with diluted test solutions. After drying leaf discs are cut and placed in plastic cups on the surface of an agar layer and infested with mixed population. 6 days (leaf discs) or 14 days (plants) after the infestation, samples are checked for reduction of treated population and compared to the non treated population.

The subject of assay [11] is Tetranychus urticae (two-spotted spider mite). The assay is described as follows: Example B4: activity against Tetranychus urticae, sprayed bean leaf discs (feeding/residual contact, preventive). The following applies: foliar, 192 h, read-out: activity (egg, larval and adult mortality).
In assay [12] the test system is Thrips tabaci (onion thrips). The assay is described as follows: Example B3: activity against Thrips tabaci, sprayed sunflower leaf discs (feeding/residual contact, preventive). Format: in vivo. The following applies: foliar, 144 h, mixed population, 6 days. From the text: Activity Against Thrips tabaci (Onion Thrips)
(Mixed Population, Feeding/Residual Contact Activity, Preventive)

Consider `CCOC(=O)OC1=C(c2cc(C)ccc2C)C(=O)N(OC)C12CCN(OC)CC2` [P1.1], for which the mortality at 200 ppm in assay [1] was no less than 80%. Besides, the mortality at 400 ppm in [2], in assay [4], in assay [5], in [6], in assay [7] and in assay [8] was greater than 80% each time. In assay [3], the mortality at 25 ppm was greater than 80%.

Take `CCOC(=O)OC1=C(c2cc(C)ccc2C)C(=O)N(OCCOC)C12CCN(OC)CC2` [P1.3]: the mortality at 200 ppm in [1] is no less than 80%. The mortality at 400 ppm in assay [2], in assay [4], in assay [5], in assay [6], in assay [7] and in [8] was greater than 80% in each case. For the same compound, the mortality at 25 ppm in assay [3] was greater than 80%.

For the compound `CCOC(=O)OC1=C(c2c(C)cc(C)cc2C)C(=O)N(OC2CCCCO2)C12CCN(OC)CC2` (centres unmarked) [P1.10], in assay [1], the mortality at 200 ppm is no less than 80%. The mortality at 400 ppm in [2], in assay [4], in [5], in assay [7], in [8] and in assay [11] was greater than 80% each time. Also, in assay [9], the pest or weed control at 200 ppm is greater than 80%. Moreover, in assay [3], the mortality at 25 ppm was greater than 80%. Besides, the pest or weed control at 400 ppm in assay [10] was greater than 80%.

Turning to `CCOC(=O)OC1=C(c2cc(C)ccc2C)C(=O)N(O)C12CCN(OC)CC2` [P1.12], the mortality at 400 ppm in assay [12], in assay [4], in assay [5] and in [7] was greater than 80% each time.

In the case of `CCOC(=O)OC1=C(c2c(C)cc(C)cc2C)C(=O)N(OC(C)C)C12CCN(OC)CC2` [P1.14], the mortality at 200 ppm in [1] was no less than 80%. Further, the mortality at 400 ppm in assay [2] and in assay [5] was greater than 80% in each case. Moreover, in [10], the pest or weed control at 400 ppm was greater than 80%.

The compound `CCOC(=O)OC1=C(c2c(C)cc(C)cc2C)C(=O)N(OCC2CC2)C12CCN(OC)CC2` [P1.18] registered a mortality at 200 ppm in assay [1] of no less than 80%. The mortality at 400 ppm in assay [2], in [4], in [5], in [7] and in [11] was greater than 80% each time. For the same compound, in [9], the pest or weed control at 200 ppm is greater than 80%. In addition, the mortality at 25 ppm in assay [3] was greater than 80%. Besides, in assay [10], the pest or weed control at 400 ppm is greater than 80%.

As to `CCOC(=O)OC1=C(c2c(C)cc(C)cc2C)C(=O)N(OCC2CCCCO2)C12CCN(OC)CC2` (centres unmarked) [P1.26], the mortality at 200 ppm in assay [1] was no less than 80%. For the same compound, the mortality at 400 ppm in [2], in assay [4], in assay [5], in assay [6], in assay [7] and in assay [8] was greater than 80% throughout. In addition, the mortality at 400 ppm in assay [11] is greater than 80%. The mortality at 25 ppm in [3] is greater than 80%.

On to `CCOC(=O)OC1=C(c2c(C)cc(C)cc2C)C(=O)N(OC2CCC2)C12CCN(OC)CC2` [P1.45], for which the mortality at 200 ppm in [1] was no less than 80%. Also, the mortality at 400 ppm in assay [2], in [4], in [5], in assay [7] and in assay [11] was greater than 80% in each case. The pest or weed control at 400 ppm in [10] was greater than 80%.

Take `CCOC(=O)OC1=C(c2ccc(C)cc2C)C(=O)N(OC2CCCO2)C12CCN(OC)CC2` (centres unmarked) [P1.47]: the mortality at 400 ppm in [12], in [4], in assay [5] and in [11] was greater than 80% throughout.

For the compound `CCOCON1C(=O)C(c2ccc(C)cc2C)=C(OC(=O)OCC)C12CCN(OC)CC2` [P1.49], the mortality at 400 ppm in assay [2], in [12], in assay [4], in assay [5], in assay [7] and in assay [11] was greater than 80% in each case. Also, in assay [3], the mortality at 25 ppm was greater than 80%.

In turn, `CCOC(=O)OC1=C(c2c(C)cc(C)cc2C)C(=O)N(OCc2ccco2)C12CCN(OC)CC2` [P1.81] yielded a mortality at 200 ppm in assay [1] of no less than 80%. For the same compound, the mortality at 400 ppm in assay [12], in assay [4], in assay [5] and in [11] was greater than 80% in each case.

`CCOCON1C(=O)C(c2c(C)cc(C)cc2C)=C(O)C12CCN(OC)CC2` [P2.10] returned a mortality at 200 ppm in [1] of no less than 80%. Moreover, the mortality at 400 ppm in assay [2], in [12], in [4], in assay [5], in [7] and in assay [8] was greater than 80% each time. Besides, the pest or weed control at 400 ppm in [10] is greater than 80%.

The compound `CON1CCC2(CC1)C(O)=C(c1c(C)cc(C)cc1C)C(=O)N2OC(C)C` [P2.11] displayed a mortality at 200 ppm in assay [1] of no less than 80%. The mortality at 25 ppm in [3] was greater than 80%. The mortality at 400 ppm in assay [5] and in [11] was greater than 80% each time. Also, the pest or weed control at 400 ppm in assay [10] is greater than 80%.

Regarding `C=CCON1C(=O)C(c2c(C)cc(C)cc2C)=C(O)C12CCN(OC)CC2` [P2.12], in [1], the mortality at 200 ppm is no less than 80%. Further, the mortality at 400 ppm in [2], in assay [4], in assay [5] and in [11] was greater than 80% in each case. Further, the pest or weed control at 200 ppm in assay [9] was greater than 80%. In assay [3], the mortality at 25 ppm was greater than 80%. Further, the pest or weed control at 400 ppm in assay [10] is greater than 80%.

For the compound `CON1CCC2(CC1)C(O)=C(c1c(C)cc(C)cc1C)C(=O)N2OC1CCC1` [P2.30], the mortality at 200 ppm in [1] was no less than 80%. The mortality at 400 ppm in assay [2], in [4], in [5] and in assay [11] was greater than 80% throughout. Further, in assay [3], the mortality at 25 ppm is greater than 80%. Moreover, the pest or weed control at 400 ppm in assay [10] is greater than 80%.

In assay [1], `COCON1C(=O)C(c2c(C)ccc(C)c2C)=C(O)C12CCN(OC)CC2` [P2.54] yielded a mortality at 200 ppm of no less than 80%. The mortality at 400 ppm in [2], in [4], in assay [5] and in assay [8] was greater than 80% throughout. Also, the mortality at 25 ppm in [3] is greater than 80%. The pest or weed control at 400 ppm in [10] was greater than 80%.

On to `CON1CCC2(CC1)C(O)=C(c1c(C)cc(C)cc1Cl)C(=O)N2OC` [P2.55], for which the mortality at 400 ppm in assay [2], in assay [4], in assay [5], in assay [7], in [8] and in [11] was greater than 80% throughout. In addition, in assay [3], the mortality at 25 ppm is greater than 80%. Further, in assay [10], the pest or weed control at 400 ppm was greater than 80%.

Consider `CON1CCC2(CC1)C(O)=C(c1c(C)cc(C)cc1Br)C(=O)N2OC` [P2.56], for which the mortality at 400 ppm in assay [2], in [4], in [5], in assay [8] and in assay [11] was greater than 80% each time. Moreover, in assay [3], the mortality at 25 ppm was greater than 80%. For the same compound, the pest or weed control at 400 ppm in [10] was greater than 80%.

The compound `CON1CCC2(CC1)C(O)=C(c1c(C)cc(C)cc1C)C(=O)N2OCC1CCOC1` (centres unmarked) [P2.67] displayed a mortality at 200 ppm in [1] of no less than 80%. The mortality at 400 ppm in assay [12], in assay [4], in [5] and in assay [11] was greater than 80% throughout.

For `COCCON1C(=O)C(c2c(C)cccc2C)=C(O)C12CCN(OC)CC2` [P2.77], in [1], the mortality at 200 ppm was no less than 80%. In addition, the mortality at 400 ppm in [12], in [4] and in assay [5] was greater than 80% each time.

(Values after patent publication US20110224079A1, “SPIROHETEROCYCLIC N-OXYAMIDES AS PESTICIDES” (SYNGENTA CROP PROTECTION LLC, priority 2008, published 2011).)
